Consider five molecules from patent US20040162345A1, “Compounds with NEP/MP-inhibitory activity and uses thereof” (Solvay Pharmaceuticals GmbH, priority 2001, published 2004).

In test [1] the test system is patients with congestive heart failure. Nature of the test: Open, baseline controlled pilot trial in patients with congestive heart failure. It counts as in vivo, human. On the procedure: (§1) To proof the concept of clinical efficacy and safety of compound Ia-2 in man, 6 clinical trials were conducted in healthy volunteers and 2 proof of concept trials were conducted in patients: One randomized, placebo-controlled double-blind trial in patients with hypertension (N=191) and one open, baseline controlled pilot trial in patients with congestive heart failure (N=29). […] In the Intent-to-treat patient population (ITT), office diastolic blood pressure versus placebo decreased by −6.9 mmHg (last value under treatment; p<0.001) and office systolic blood pressure versus placebo decreased by −9.2 mmHg (last value under treatment; p=0.003) at the highest dose investigated (200 mg bid).

The test system of test [2] is volunteers and patients. The experiment in a line: Clinical trials, plasma ANP and cGMP following oral dosing. In kind it is in vivo, human. The protocol: as §1
Test [3] has as its system patients with WHO grade I-II hypertension. The experiment in a line: Randomized, placebo-controlled double-blind 4-week trial in patients with hypertension. In kind it is in vivo, human. To be noted: 200 mg bid, ITT, last value under treatment. On the procedure:
as §1

Test [4] has as its system healthy volunteers. The experiment in a line: Double-blind placebo-controlled clinical study, big-ET-induced pressure response. In kind it is in vivo, human. The following applies: thirteen healthy volunteers. The protocol:
as §1

Test [5] addresses T1, His6-tagged IGS5 ectodomain (Homo sapiens, UniProt Q495T6).
T1 construct: Enzyme: IGS-5 (sol hu)(his)6; or: His6-tagged IGS5 ectodomain;; made in house; host or cells: Sf9 insect cells, recombinant baculovirus IGBV73, purified from culture supernatant
T1 sequence (Q495T6 49-779 limits assumed): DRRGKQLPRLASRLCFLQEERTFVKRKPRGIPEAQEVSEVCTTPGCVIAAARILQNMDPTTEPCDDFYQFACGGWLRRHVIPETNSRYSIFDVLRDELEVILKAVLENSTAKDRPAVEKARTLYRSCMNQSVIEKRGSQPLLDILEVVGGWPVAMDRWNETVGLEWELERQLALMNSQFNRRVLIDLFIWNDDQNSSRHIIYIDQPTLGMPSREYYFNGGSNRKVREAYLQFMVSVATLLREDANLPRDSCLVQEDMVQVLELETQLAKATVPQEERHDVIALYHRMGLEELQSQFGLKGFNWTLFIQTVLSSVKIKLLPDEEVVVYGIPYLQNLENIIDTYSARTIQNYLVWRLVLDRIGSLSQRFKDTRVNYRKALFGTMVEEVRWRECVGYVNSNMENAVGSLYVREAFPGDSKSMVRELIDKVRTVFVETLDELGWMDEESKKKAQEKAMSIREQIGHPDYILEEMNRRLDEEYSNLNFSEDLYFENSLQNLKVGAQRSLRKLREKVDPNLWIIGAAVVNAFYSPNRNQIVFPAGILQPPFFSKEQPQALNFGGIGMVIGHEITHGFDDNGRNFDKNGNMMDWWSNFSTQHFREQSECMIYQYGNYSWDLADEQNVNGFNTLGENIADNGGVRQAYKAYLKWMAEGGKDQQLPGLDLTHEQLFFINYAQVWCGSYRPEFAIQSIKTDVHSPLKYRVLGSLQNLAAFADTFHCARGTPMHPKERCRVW
Nature of the test: IGS5 enzyme inhibition assay (fluorescence-quenched big-ET-1 analog, HPLC). In kind it is biochemical. The following applies: for IC50: conversion of labeled fluorescent big-ET-1 analog. The protocol: The enzymatic activity of IGS5 polypeptides of the invention was tested with regard to the metabolism of biologically active peptides. In particular it was tested whether these IGS5 polypeptides may act on a variety of vasoactive peptides known in the state of the art e.g. such like atrial natriuretic peptide (ANP), bradykinin, big-endothelin (big-ET-1), endothelin (ET-1), substance P and angiotensin-1. In the context of the present invention in particular it was tested whether the IGS5 ectodomain, which is a novel human metalloprotease, hydrolyzes said vasoactive peptides. For comparison the assay was also performed for a known member of the metalloprotease family which was described earlier as soluble secreted endopeptidase (SEP) by Emoto et al. (J. Biol. Chem., Vol. 274 (1999): pp. 32469-32477). Furthermore, it was tested whether the activity of IGS5 to convert a big-ET-1 analog (the so-called 17 aa big-ET-1) may be inhibited by reference compounds that are used to determine the inhibition properties with regard to enzymes having ECE and/or NEP-characteristics.
Enzyme: IGS-5 (sol hu)(his)6; or: His6-tagged IGS5 ectodomain;
stock solution: 53 μg/ml in 20 mM HEPES pH 7.2, 5% glycerol, 0.005% Tween20, 100 mM NaCl, purity >99%; storage at 4° C.
working solution: stock solution diluted with assay buffer to 10 μg/ml.
Substrate: Mca-Asp-Ile-Ala-Trp-Phe-Dpa-[…]COOH;
Fluorescence-quenched big-ET-1 analog;
Assay buffer: 100 mM Tris pH 7.0, 250 mM NaCl.
All test compounds were dissolved in DMSO at 10 mM and were further diluted with assay buffer.
A quantity of 70 μl of the assay buffer, of 10 μl enzyme working solution and of 10 μl test compound solution were mixed in an Eppendorf vial and preincubated at 37° C. for 15 minutes. Then, 10 μl substrate stock solution was added and the reaction mixture was incubated at 37° C. for 60 minutes to allow for enzymatic hydrolysis. Subsequently the enzymatic reaction was terminated by heating at 95° C. for 5 minutes. After centrifugation (Heraeus Biofuge B, 3 min) the supernatant was subjected to HPLC analysis.
In order to separate the remaining substrate from the cleavage products reversed phase HPLC technique was used with a CC 125/4 Nucleosil 300/5 C18 RP column and a CC 8/4 Nucleosil 100/5 C18 precolumn (commercially available from Macherey-Nagel, Düren, Germany). Thus, 60 μl of the reaction samples obtained in Example 7b were injected into the HPLC, and the column was eluted at a flow rate of 1 ml/min by applying the following gradient and solutions: […]
The increasing fluorescence signal of the HPLC-peak of the peptide with the unquenched Mca-fluorophor after hydrolysis was taken as the basis for any calculation.
This signal was compared for the samples with and without inhibitor and % inhibition was calculated on basis of the respective peak areas.
% inhib=100*(1−Ainhib/Acontrol)
All samples were run in duplicate and mean values were used.
(§2) Furthermore, the potency of metalloprotease inhibitor compounds and reference compounds to suppress the conversion of big-ET to ET-1 was examined as described in this example 7, using a labeled fluorescent big-ET-1 analog. The procedures applied in the enzyme assays are described above in the examples 4 with regard to IGS5, in example 5 with regard to NEP, and in example 6 with regard to ECE.

In test [6] the target is Neutral endopeptidase (E.C. 3.4.24.11) (Sus scrofa, UniProt A0A4X1SQE6). The experiment in a line: NEP enzyme inhibition assay (methionin-enkephalin substrate, HPLC). In kind it is biochemical, pig. The protocol: Neutral endopeptidase (E.C. 3.4.24.11) was prepared from pig kidney cortex according to the method of Gee et al. (Biochem J 1985 May 15;228(1):119-26) and purified as reported by Relton et al. (Biochem J 1983 Dec. 1;215(3):519-23). For the enzyme inhibition assay 10 ng of the purified enzyme, 20 μM substrate (methionin-enkephalin) and various inhibitor concentrations were used. The assay buffer was 50 mM Tris-(hydroxymethyl)-aminomethan/HCl pH 7.4, the total assay volume was 100 μl. After a preincubation period of 5 min of enzyme and inhibitor, the substrate was added and subsequently a second incubation phase for enzyme induced substrate hydrolysis at 37° C. for 30 min was initiated. The enzymatic reaction was stopped by heating at 95° C. for 5 min. After centrifugation the supernatant was subjected to HPLC. The products of enzymatic substrate hydrolysis were separated from the native substrate by HPLC technique and the inhibitor potency calculated by comparing the peak areas of the products with the peak area of native substrate for both, the samples with and without inhibitor (control). Blanks without enzyme, controls without inhibitor, samples with inhibitor solvent instead of the inhibitor and samples with a standard inhibitor were added to each assay run.
as §2

For test [7], the target named is T2, Recombinant human COOH-terminal His6-tagged endothelin converting enzyme-1 (Homo sapiens, UniProt P42892).
T2 construct: His6 (C); purchased Innogenetics, Ghent, Belgium; host or cells: Sf9 cells
T2 sequence (P42892 1-770): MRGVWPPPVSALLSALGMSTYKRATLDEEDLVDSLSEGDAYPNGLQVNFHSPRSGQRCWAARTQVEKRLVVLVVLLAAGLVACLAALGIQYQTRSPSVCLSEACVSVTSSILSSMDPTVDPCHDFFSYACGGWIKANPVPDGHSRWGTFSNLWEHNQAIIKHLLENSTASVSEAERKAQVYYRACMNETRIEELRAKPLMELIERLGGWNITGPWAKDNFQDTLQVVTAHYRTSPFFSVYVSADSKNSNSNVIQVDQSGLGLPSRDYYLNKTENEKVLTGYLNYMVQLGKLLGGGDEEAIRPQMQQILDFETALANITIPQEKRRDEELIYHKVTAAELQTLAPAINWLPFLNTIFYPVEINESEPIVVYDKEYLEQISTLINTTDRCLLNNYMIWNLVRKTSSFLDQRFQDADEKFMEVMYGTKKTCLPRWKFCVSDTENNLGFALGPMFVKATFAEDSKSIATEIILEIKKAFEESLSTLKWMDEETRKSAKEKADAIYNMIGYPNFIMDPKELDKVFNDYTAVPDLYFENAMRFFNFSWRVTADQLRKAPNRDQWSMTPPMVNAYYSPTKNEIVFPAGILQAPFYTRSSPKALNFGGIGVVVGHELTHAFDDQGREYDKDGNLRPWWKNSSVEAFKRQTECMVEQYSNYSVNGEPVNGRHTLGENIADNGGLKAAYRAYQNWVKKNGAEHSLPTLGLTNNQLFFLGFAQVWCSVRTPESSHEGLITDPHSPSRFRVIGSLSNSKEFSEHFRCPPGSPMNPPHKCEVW
Nature of the test: ECE enzyme inhibition assay (17 amino acid truncated big endothelin-1, HPLC). It counts as biochemical.
Protocol: The enzyme inhibition assay comprised enzyme (2.8 μg), 5 μg substrate (moderately modified 17 amino acid truncated big endothelin-1), inhibitor at various final concentrations and 100 mM Tris-buffer (Tris-hydroxymethl-aminomethan/HCl, pH 7.0+150 mM NaCl) in a final volume of 100 μl. Pre-incubation of enzyme with inhibitor for 15 min at 37° C. was performed before substrate addition and incubation (60 min at 37° C.) for enzymatic hydrolysis. The enzymatic reaction was stopped by heating at 95° C. for 5 min. After centrifugation the supernatant was subjected to HPLC for separation of enzymatic hydrolysis products from undegraded substrate. % inhibition was calculated on the basis of peak areas for products and uncleaved substrate for the inhibited reaction in comparison to the control (without inhibitor). Blanks without enzyme, controls without inhibitor, samples with inhibitor solvent instead of the inhibitor and samples with a standard inhibitor were added to each assay run.

Setting [8] is: 20 μM methionin-enkephalin, read-out: NEP IC50.

“Also recorded” adds a separate entry of the source. Where two headings read alike, the source gives them in different places. Bounds are passed on as bounds.

Neutral endopeptidase (E.C. 3.4.24.11), sequence (A0A4X1SQE6 entry or part of it): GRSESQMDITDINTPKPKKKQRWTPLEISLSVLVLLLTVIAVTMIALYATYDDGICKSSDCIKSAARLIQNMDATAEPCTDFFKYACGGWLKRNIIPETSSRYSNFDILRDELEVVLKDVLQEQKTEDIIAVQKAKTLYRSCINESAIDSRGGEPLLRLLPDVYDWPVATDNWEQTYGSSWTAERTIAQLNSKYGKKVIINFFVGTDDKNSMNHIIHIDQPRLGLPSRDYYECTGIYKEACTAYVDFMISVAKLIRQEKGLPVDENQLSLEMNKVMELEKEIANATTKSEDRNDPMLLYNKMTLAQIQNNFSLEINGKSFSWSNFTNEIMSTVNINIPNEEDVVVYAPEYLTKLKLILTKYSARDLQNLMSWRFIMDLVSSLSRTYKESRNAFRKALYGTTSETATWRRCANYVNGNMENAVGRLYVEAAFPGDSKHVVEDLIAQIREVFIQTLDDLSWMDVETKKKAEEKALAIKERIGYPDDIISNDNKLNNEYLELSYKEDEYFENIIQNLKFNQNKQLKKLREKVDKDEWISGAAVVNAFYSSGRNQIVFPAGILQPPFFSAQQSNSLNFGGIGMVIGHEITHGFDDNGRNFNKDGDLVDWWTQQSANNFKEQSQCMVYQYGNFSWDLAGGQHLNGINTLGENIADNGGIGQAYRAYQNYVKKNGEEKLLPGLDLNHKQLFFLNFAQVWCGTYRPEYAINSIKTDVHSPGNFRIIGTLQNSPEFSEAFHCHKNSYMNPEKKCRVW

In general, IC50 refers to the concentration needed to halve the response being measured. On to `CCOC(=O)[C@H](CCc1ccccc1)CC1(C(=O)N[C@H]2CCc3ccccc3N(CC(=O)O)C2=O)CCCC1` [compound Ia-2, (3S,2′R)-3-{1-[2′-(ethoxycarbonyl)-4′-phenylbutyl]-cyclopentane-1-carbonylamino}-2,3,4,5-tetrahydro-2-oxo-1H-1-benzazepine-1-acetic acid], for which the “change of plasma big-ET from baseline” value in test [1] (200 mg) was “+32.6%”; in test [1] (400 mg), “+56%”. The “plasma levels of big-ET following administration” value in test [1] (200 mg, baseline 4.9 fmol/ml) was determined as 6.5 fmol/mL; in test [1] (400 mg, baseline 2.3 fmol/ml) it was 3.5 fmol/mL. Further, the “plasma concentrations of ANP and its second messenger cGMP” value in test [2] is “significantly increased and sustained”. Also, the “office diastolic blood pressure versus placebo” value in test [3] (p<0.001) was −6.9 mmHg. In addition, the “office systolic blood pressure versus placebo” value in test [3] (p=0.003) is on record as −9.2 mmHg. In addition, the ANP levels result in test [4] was “clear dose related increase”. Further, the ET-1 levels result in test [4] is given as “did not increase”. Moreover, the big-ET levels result in test [4] (compared to placebo group) was “increased dose dependently”. In test [4] (versus placebo), the big-ET-induced pressure response result was “dose-dependently inhibited”. Besides, 1.2 nM corresponded to half-maximal inhibition in test [5] (IC50).
With `CC(C)C[C@H](NP(=O)(O)O[C@@H]1O[C@@H](C)[C@H](O)[C@@H](O)[C@H]1O)C(=O)N[C@@H](Cc1c[nH]c2ccccc12)C(=O)O` [Phosphoramidon], the figures for the concentration for half-maximal inhibition (IC50) in test [6] and in test [5] were 2 nM and 18 nM, respectively. The “inhibition of IGS5 activity (in words)” value in test [5] was “inhibits IGS5 with high potency”.
On to `O=C(O)CNC(=O)C(CS)Cc1ccccc1` (stereo not shown) [Thiorphan], for which the IC50 is more than 10000 nM in test [7], 2.4 nM in test [6] and more than 1000 nM in test [5]. Further, the “inhibition of IGS5 activity (in words)” value in test [5] was “no inhibition of IGS5; also recorded: do not affect the activity of IGS5”.
As for `Cc1nn(-c2ccccc2)c(NC(=O)NS(=O)(=O)c2ccc(Cl)cc2)c1C#N.[Na]` [monosodium salt], the figures for the IC50 in test [6] (setting [8]) and in test [5] were more than 1000 nM and more than 10000 nM, respectively.
Take `O=C(O)C(Cc1ccc2c(c1)oc1ccccc12)NCP(=O)(O)O` (stereo not shown) [CGS-35066]: the figures for the IC50 in test [7], in test [6] (setting [8]) and in test [5] were 5 nM, 42 nM and 1300 nM, respectively. In test [5], the “inhibition of IGS5 activity (in words)” value is reported as “Inhibition of IGS5 could be observed at higher concentrations only”.
